Assay results: BigSolDB 2.1
Where a SMILES comes first, the peptide text is derived from it. [ ]: non-standard residue; d: D form. pGlu = O=C1CC[C@@H](C(=O)O)N1; Thz = O=C(O)[C@@H]1CSCN1

O=C1CC[C@@H](C(=O)N2CSC[C@H]2C(=O)O)N1 ([pGlu]-[Thz]-OH)
solubility (mole fraction)
Conditions	278.15 K	283.15 K	288.15 K	293.15 K	298.15 K	303.15 K	308.15 K	313.15 K	318.15 K	323.15 K
in DMF	0.00535	0.00604	0.00734	0.00953	0.0123	0.0151	0.0182	0.0214	0.0253	0.0291
in acetone	3.1e-05	5e-05	8.5e-05	0.000121	0.000176	0.000249	0.000354	0.000522	0.000693	0.000925
in acetonitrile	0.000297	0.000336	0.000426	0.00052	0.000691	0.000855	0.00107	0.00132	0.00159	0.00195
in benzyl alcohol	0.00226	0.00262	0.00307	0.00374	0.00452	0.00553	0.00661	0.00806	0.0101	0.0128
in ethanol	8.3e-05	0.000128	0.000198	0.000303	0.00045	0.000679	0.000986	0.00144	0.00208	0.00292
in isopropanol	9.1e-05	0.000138	0.000209	0.000307	0.000454	0.000663	0.000945	0.00136	0.0019	0.00265
in methanol	0.00121	0.00137	0.00157	0.00184	0.00216	0.00257	0.00305	0.00365	0.00437	0.00528
in n-butanol	0.000227	0.000282	0.000354	0.000439	0.000566	0.00072	0.000908	0.0012	0.00151	0.00197
in water	0.00163	0.00181	0.00205	0.00234	0.0027	0.00313	0.00368	0.00434	0.00509	0.00604
